Measured values reported in ChEMBL document CHEMBL4364348, “Divalent cannabinoid-1 receptor ligands: A linker attachment point survey of SR141716A for development of high-affinity CB1R molecular probes” (Bioorg Med Chem Lett, 2019).
pKi: −log10 of the molar value.

Assays:
Cannabinoid receptor 1 [1] = biological target: T1, Cannabinoid receptor 1 (Homo sapiens, UniProt P21554); test: Displacement of [3H]CP55940 from human CB1R in HEK293 cell membranes at 10 uM after 60 mins liquid scintillation analysis relative to control
D(2) dopamine receptor = D(2) dopamine receptor (Homo sapiens, UniProt P14416); test: Binding affinity to human D2R
Cannabinoid receptor 1 [2] = biological target: T1, Cannabinoid receptor 1; test: Displacement of [3H]CP55940 from human CB1R in HEK293 cell membranes after 60 mins liquid scintillation analysis

Sequence of D(2) dopamine receptor (P14416 whole entry): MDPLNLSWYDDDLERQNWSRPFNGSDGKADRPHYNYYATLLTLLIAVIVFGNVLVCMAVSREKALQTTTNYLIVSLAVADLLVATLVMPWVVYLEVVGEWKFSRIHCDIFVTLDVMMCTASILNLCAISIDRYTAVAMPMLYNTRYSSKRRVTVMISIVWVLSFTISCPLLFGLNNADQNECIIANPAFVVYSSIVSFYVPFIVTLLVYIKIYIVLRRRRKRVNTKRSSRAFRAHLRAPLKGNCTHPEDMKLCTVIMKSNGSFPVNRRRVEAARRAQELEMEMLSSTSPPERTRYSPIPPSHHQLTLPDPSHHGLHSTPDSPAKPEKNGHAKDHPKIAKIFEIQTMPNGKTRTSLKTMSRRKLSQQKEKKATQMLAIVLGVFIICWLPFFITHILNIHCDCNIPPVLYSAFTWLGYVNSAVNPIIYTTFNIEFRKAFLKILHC
T1 sequence (P21554 whole entry): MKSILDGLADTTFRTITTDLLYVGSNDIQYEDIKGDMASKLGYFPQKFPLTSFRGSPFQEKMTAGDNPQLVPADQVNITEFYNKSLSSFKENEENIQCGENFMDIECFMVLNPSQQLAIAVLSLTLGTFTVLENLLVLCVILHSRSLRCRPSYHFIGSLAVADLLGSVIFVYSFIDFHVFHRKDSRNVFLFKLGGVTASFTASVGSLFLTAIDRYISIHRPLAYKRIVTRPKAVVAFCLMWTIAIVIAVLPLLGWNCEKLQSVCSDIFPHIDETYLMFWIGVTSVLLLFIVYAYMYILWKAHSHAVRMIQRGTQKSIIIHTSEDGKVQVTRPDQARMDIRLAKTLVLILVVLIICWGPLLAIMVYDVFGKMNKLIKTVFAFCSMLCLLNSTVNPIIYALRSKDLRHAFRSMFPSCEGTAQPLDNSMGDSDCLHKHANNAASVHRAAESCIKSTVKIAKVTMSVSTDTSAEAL

Structure (SMILES) | inhibition (Cannabinoid receptor 1 [1]) | pKi (D(2) dopamine receptor) | pKi (Cannabinoid receptor 1 [2])
CCCN(CCc1ccc(NC(=O)CCC(=O)NCCCCCC(=O)NCc2ccc(C(=O)NCCCCCC(=O)NCCCCCC(=O)NCc3ccc(C(=O)NCCCCCC(=O)NCCCCCCNC(=O)c4nn(-c5ccc(Cl)cc5Cl)c(-c5ccc(Cl)cc5)c4C)cc3)cc2)cc1)C1CCc2c(O)cccc2C1 (centres undefined) | 0% | 8.38 | –
COC(=O)CCCCCNC(=O)CCCCCn1nc(C(=O)NN2CCCCC2)c(C)c1-c1ccc(Cl)cc1 | 33% | – | –
CCOC(=O)c1ccc(CNC(=O)c2nn(-c3ccc(Cl)cc3Cl)c(-c3ccc(Cl)cc3)c2C)cc1 | – | – | 8.09
CC(=O)N[C@@H](CCCCNC(=O)c1nn(-c2ccc(Cl)cc2Cl)c(-c2ccc(Cl)cc2)c1C)C(=O)NCCCC[C@H](NC(C)=O)C(=O)NCCCCCCNC(=O)c1nn(-c2ccc(Cl)cc2Cl)c(-c2ccc(Cl)cc2)c1C | 11% | – | –
Cc1c(C(=O)NN2CCCCC2)nn(-c2ccc(Cl)cc2Cl)c1-c1ccc(C#CCCO)cc1 | 98% | – | 6.74
Cc1c(C(=O)NN2CCCCC2)nn(-c2ccc(Cl)cc2Cl)c1-c1ccc(C#CCCOC(=O)CCCCCNC(=O)OC(C)(C)C)cc1 | 79% | – | 6.97
Cc1c(C(=O)NN2CCCCC2)nn(CCCCCC(=O)OC(C)(C)C)c1-c1ccc(Cl)cc1 | 37% | – | –
Cc1c(C(=O)NN2CCCCC2)nn(-c2ccc(Cl)cc2Cl)c1-c1ccc(-c2ccc(C(=O)O)cc2)cc1 | 66% | – | –
Cc1c(C(=O)NCCCCCCCCCCC(=O)O)nn(-c2ccc(Cl)cc2Cl)c1-c1ccc(Cl)cc1 | 43% | – | –
CC(=O)N[C@@H](CCCCNC(=O)COCCOCCNC(=O)COCCOCCNC(=O)c1nn(-c2ccc(Cl)cc2Cl)c(-c2ccc(Cl)cc2)c1C)C(=O)NCCCC[C@H](NC(C)=O)C(=O)NCCCCCCNC(=O)c1nn(-c2ccc(Cl)cc2Cl)c(-c2ccc(Cl)cc2)c1C | 29% | – | –
CNC(=O)c1ccc(-c2ccc(-c3c(C)c(C(=O)NN4CCCCC4)nn3-c3ccc(Cl)cc3Cl)cc2)cc1 | 55% | – | –
Cc1c(C(=O)NN2CCCCC2)nn(-c2ccc(Cl)cc2Cl)c1-c1ccc(C#CCCOC(=O)CCCCCNC(=S)Nc2ccc3c(c2)C(=O)OC32c3ccc(O)cc3Oc3cc(O)ccc32)cc1 | – | – | 6.59
COC(=O)CCCCCCCCCCNC(=O)c1nn(-c2ccc(Cl)cc2Cl)c(-c2ccc(Cl)cc2)c1C | 5% | – | –
CC(=O)OCCC#Cc1ccc(-c2c(C)c(C(=O)NN3CCCCC3)nn2-c2ccc(Cl)cc2Cl)cc1 | 100% | – | 7.96
COC(=O)c1ccc(-c2ccc(-c3c(C)c(C(=O)NN4CCCCC4)nn3-c3ccc(Cl)cc3Cl)cc2)cc1 | – | – | 6.88
Cc1c(C(=O)NN2CCCCC2)nn(-c2ccc(Cl)cc2Cl)c1-c1ccc(C#CCCOCCCCCC(=O)OC(C)(C)C)cc1 | 97% | – | 7.35
Cc1c(C(=O)NCCCCCCNC(=O)CCCCCNC(=O)c2ccc(CNC(=O)CCCCCNC(=O)c3nn(-c4ccc(Cl)cc4Cl)c(-c4ccc(Cl)cc4)c3C)cc2)nn(-c2ccc(Cl)cc2Cl)c1-c1ccc(Cl)cc1 | 29% | – | –
CC(=O)NCCOCCOCC(=O)NCCCC[C@H](NC(C)=O)C(=O)NCCCC[C@H](NC(C)=O)C(=O)NCCCCCCNC(=O)c1nn(-c2ccc(Cl)cc2Cl)c(-c2ccc(Cl)cc2)c1C | 37% | – | –
Cc1c(C(=O)NCCCCCCNC(=O)CCCCCNC(=O)c2ccc(CNC(=O)CCCCCNC(=O)CCCCCNC(=O)c3ccc(CNC(=O)CCCCCNC(=O)c4nn(-c5ccc(Cl)cc5Cl)c(-c5ccc(Cl)cc5)c4C)cc3)cc2)nn(-c2ccc(Cl)cc2Cl)c1-c1ccc(Cl)cc1 | 0% | – | –

Structure (SMILES) | inhibition (Cannabinoid receptor 1 [1]) | pKi (D(2) dopamine receptor) | pKi (Cannabinoid receptor 1 [2])
COC(=O)CCCCCCCCCCNC(=O)c1ccc(-c2ccc(-c3c(C)c(C(=O)NN4CCCCC4)nn3-c3ccc(Cl)cc3Cl)cc2)cc1 | 0% | – | –
CNC(=O)CCCCCn1nc(C(=O)NN2CCCCC2)c(C)c1-c1ccc(Cl)cc1 | 3% | – | –
COC(=O)CCCCCNC(=O)c1ccc(-c2ccc(-c3c(C)c(C(=O)NN4CCCCC4)nn3-c3ccc(Cl)cc3Cl)cc2)cc1 | 49% | – | –
Cc1c(C(=O)NN2CCCCC2)nn(CCCCCC(=O)NCCCCCC(=O)O)c1-c1ccc(Cl)cc1 | 13% | – | –
Cc1c(C(=O)NN2CCCCC2)nn(-c2ccc(Cl)cc2Cl)c1-c1ccc(C#CCCOC(=O)CCCCCCCCCCNC(=S)Nc2ccc3c(c2)C(=O)OC32c3ccc(O)cc3Oc3cc(O)ccc32)cc1 | – | – | 5.68
Cc1c(C(=O)NN2CCCCC2)nn(CCCCCC(=O)O)c1-c1ccc(Cl)cc1 | 10% | – | –
CC(=O)NCCOCCOCC(=O)NCCOCCOCC(=O)NCCCC[C@H](NC(C)=O)C(=O)NCCCC[C@H](NC(C)=O)C(=O)NCCCCCCNC(=O)c1nn(-c2ccc(Cl)cc2Cl)c(-c2ccc(Cl)cc2)c1C | 23% | – | –
CCCN(CCc1ccc(NC(=O)CCC(=O)NCCOCCOCC(=O)NCCCC[C@H](NC(C)=O)C(=O)NCCCC[C@H](NC(C)=O)C(=O)NCCCCCCNC(=O)c2nn(-c3ccc(Cl)cc3Cl)c(-c3ccc(Cl)cc3)c2C)cc1)C1CCc2c(O)cccc2C1 (some centres undefined) | 44% | 8.62 | –
CC(=O)NCCCC[C@H](NC(C)=O)C(=O)NCCCC[C@H](NC(C)=O)C(=O)NCCCCCCNC(=O)c1nn(-c2ccc(Cl)cc2Cl)c(-c2ccc(Cl)cc2)c1C | 41% | – | –
CC(=O)N[C@@H](CCCCNC(=O)COCCOCCNC(=O)c1nn(-c2ccc(Cl)cc2Cl)c(-c2ccc(Cl)cc2)c1C)C(=O)NCCCC[C@H](NC(C)=O)C(=O)NCCCCCCNC(=O)c1nn(-c2ccc(Cl)cc2Cl)c(-c2ccc(Cl)cc2)c1C | 23% | – | –
Cc1c(C(=O)NN2CCCCC2)nn(-c2ccc(Cl)cc2Cl)c1-c1ccc(C#CCCOC(=O)CCCCCCCCCCN)cc1 | 87% | – | 7.01
CC(=O)NCCCCCC(=O)NCc1ccc(C(=O)NCCCCCC(=O)NCCCCCCNC(=O)c2nn(-c3ccc(Cl)cc3Cl)c(-c3ccc(Cl)cc3)c2C)cc1 | 23% | – | –
CCCN(CCc1ccc(NC(=O)CCC(=O)NCCCCCC(=O)NCc2ccc(C(=O)NCCCCCC(=O)NCCCCCCNC(=O)c3nn(-c4ccc(Cl)cc4Cl)c(-c4ccc(Cl)cc4)c3C)cc2)cc1)C1CCc2c(O)cccc2C1 (centres undefined) | 33% | 8.66 | –
COC(=O)CCCCCNC(=O)c1nn(-c2ccc(Cl)cc2Cl)c(-c2ccc(Cl)cc2)c1C | – | – | 7.89
COC(=O)CCCCCCCCCCNC(=O)CCCCCn1nc(C(=O)NN2CCCCC2)c(C)c1-c1ccc(Cl)cc1 | 13% | – | –
CCCN(CCc1ccc(NC(=O)CCC(=O)NCCCC[C@H](NC(C)=O)C(=O)NCCCC[C@H](NC(C)=O)C(=O)NCCCCCCNC(=O)c2nn(-c3ccc(Cl)cc3Cl)c(-c3ccc(Cl)cc3)c2C)cc1)C1CCc2c(O)cccc2C1 (some centres undefined) | 62% | 9.08 | –
CC(=O)NCCCCCC(=O)NCc1ccc(C(=O)NCCCCCC(=O)NCCCCCC(=O)NCc2ccc(C(=O)NCCCCCC(=O)NCCCCCCNC(=O)c3nn(-c4ccc(Cl)cc4Cl)c(-c4ccc(Cl)cc4)c3C)cc2)cc1 | 0% | – | –
Cc1c(C(=O)NN2CCCCC2)nn(-c2ccc(Cl)cc2Cl)c1-c1ccc(C#CCCOC(=O)CCCCCN)cc1 | 59% | – | 5.74
CCCN(CCc1ccc(NC(=O)CCC(=O)NCCOCCOCC(=O)NCCOCCOCC(=O)NCCCC[C@H](NC(C)=O)C(=O)NCCCC[C@H](NC(C)=O)C(=O)NCCCCCCNC(=O)c2nn(-c3ccc(Cl)cc3Cl)c(-c3ccc(Cl)cc3)c2C)cc1)C1CCc2c(O)cccc2C1 (some centres undefined) | 33% | 8.96 | –
